Reference: PubChem BioAssay AID248 (DTP/NCI, 2004)
Where “and” joins values, the source holds several entries; their conditions need not be identical. Equal values may be shown once. Inconclusive results and toxic doses are left out. No stated cut-off is given here; in the data, active means T/C of 150% or more; inactive means T/C below 125%.

System: L1210 leukemia ip in BDF1 mice, survival T/C
Assay: NCI In Vivo Anticancer Drug Screen. Data for tumor model L1210 Leukemia (intraperitoneal) in B6D2F1 (BDF1) mice
Settings: endpoint: mean survival time, higher = longer survival
Summary of the method: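 Transplantable tumor model; survival measured in treated vs vehicle control mice. Value = treated/control.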

[1] = dose: 50.0 mg/kg/injection, schedule: Q01DX009 (ip), vehicle: saline with Tween-80
[2] = dose: 100.0 mg/kg/injection, schedule: Q01DX009 (ip), vehicle: Klucel (hydroxypropylcellulose) (HPC)
[3] = dose: 100.0 mg/kg/injection, schedule: Q04DX003 (ip), vehicle: Klucel (hydroxypropylcellulose) (HPC)
[4] = dose: 200.0 mg/kg/injection, schedule: Q01DX009 (ip), vehicle: Klucel (hydroxypropylcellulose) (HPC)
[5] = dose: 200.0 mg/kg/injection, schedule: Q04DX003 (ip), vehicle: Klucel (hydroxypropylcellulose) (HPC)
[6] = dose: 400.0 mg/kg/injection, schedule: Q01DX009 (ip), vehicle: Klucel (hydroxypropylcellulose) (HPC)
[7] = dose: 400.0 mg/kg/injection, schedule: Q04DX003 (ip), vehicle: Klucel (hydroxypropylcellulose) (HPC)
[8] = dose: 100.0 mg/kg/injection, schedule: Q04DX003 (ip), vehicle: saline with Tween-80
[9] = dose: 100.0 mg/kg/injection, schedule: Q01DX009 (ip), vehicle: saline with Tween-80
[10] = dose: 100.0 mg/kg/injection, schedule: Q01DX001 (ip), vehicle: saline
[11] = dose: 200.0 mg/kg/injection, schedule: Q01DX001 (ip), vehicle: saline
[12] = dose: 400.0 mg/kg/injection, schedule: Q01DX001 (ip), vehicle: saline
[13] = dose: 50.0 mg/kg/injection, schedule: Q01DX009 (ip), vehicle: Klucel (hydroxypropylcellulose) (HPC)

Measured: T/C

O=C(NC(=S)NNC(=S)NNc1ccccc1)c1ccccc1
inactive: dose: 12.5 mg/kg/injection, schedule: Q04DX002 (ip), vehicle: saline with Tween-80 101 % of control | dose: 25.0 mg/kg/injection, schedule: Q01DX009 (ip), vehicle: saline with Tween-80 102 % of control | dose: 25.0 mg/kg/injection, schedule: Q04DX002 (ip), vehicle: saline with Tween-80 107 % of control and 90 % of control | [1] 115 % of control | dose: 50.0 mg/kg/injection, schedule: Q04DX002 (ip), vehicle: saline with Tween-80 108 % of control | dose: 100.0 mg/kg/injection, schedule: Q04DX002 (ip), vehicle: saline with Tween-80 96 % of control and 101 % of control and 110 % of control | dose: 200.0 mg/kg/injection, schedule: Q04DX002 (ip), vehicle: saline with Tween-80 108 % of control

O=C1C(NCc2c(O)ccc3ccccc23)CON1C(c1ccccc1)(c1ccccc1)c1ccccc1 (stereo not drawn)
inactive: dose: 75.0 mg/kg/injection, schedule: Q04DX003 (ip), vehicle: saline 89 % of control | dose: 300.0 mg/kg/injection, schedule: Q04DX003 (ip), vehicle: saline 91 % of control

Cc1cc(O)c(C(C)(C)C)cc1N=O
inactive: dose: 50.0 mg/kg/injection, schedule: Q04DX003 (ip), vehicle: saline + alcohol 104 % of control | dose: 100.0 mg/kg/injection, schedule: Q04DX003 (ip), vehicle: saline + alcohol 101 % of control | dose: 200.0 mg/kg/injection, schedule: Q04DX003 (ip), vehicle: saline + alcohol 95 % of control

CC(C)(C)C1=C(C(C)(C)C)CS(=O)(=O)C1
inactive: dose: 25.0 mg/kg/injection, schedule: Q01DX001 (ip), vehicle: saline with Tween-80 98 % of control | dose: 50.0 mg/kg/injection, schedule: Q01DX001 (ip), vehicle: saline with Tween-80 100 % of control | dose: 100.0 mg/kg/injection, schedule: Q01DX001 (ip), vehicle: saline with Tween-80 100 % of control and 107 % of control

CC(=O)Nc1ccc2c([N+](=O)[O-])cccc2c1-c1c(NC(C)=O)ccc2c([N+](=O)[O-])cccc12
inactive: [2] 101 % of control | [3] 88 % of control | [4] 105 % of control | [5] 97 % of control | [6] 98 % of control | [7] 92 % of control

O=C(Nc1ccc(S(=O)(=O)c2ccc(NC(=O)C(F)(F)N3CCOCC3)cc2)cc1)C(F)(F)N1CCOCC1
inactive: dose: 100.0 mg/kg/injection, schedule: Q01DX001 (ip), vehicle: carboxymethylcellulose (CMC) 103 % of control | dose: 200.0 mg/kg/injection, schedule: Q01DX001 (ip), vehicle: carboxymethylcellulose (CMC) 97 % of control | dose: 400.0 mg/kg/injection, schedule: Q01DX001 (ip), vehicle: carboxymethylcellulose (CMC) 103 % of control

CC(=O)Nc1ccc(SC(=O)c2ccc(C(Cl)(Cl)Cl)cc2)cc1
inactive: [8] 101 % of control | dose: 200.0 mg/kg/injection, schedule: Q04DX003 (ip), vehicle: saline with Tween-80 98 % of control | dose: 400.0 mg/kg/injection, schedule: Q04DX003 (ip), vehicle: saline with Tween-80 93 % of control

C=C(Br)CNC(=O)OC
inactive: dose: 25.0 mg/kg/injection, schedule: Q04DX003 (ip), vehicle: saline with Tween-80 100 % of control | dose: 50.0 mg/kg/injection, schedule: Q04DX003 (ip), vehicle: saline with Tween-80 105 % of control | [8] 121 % of control

CCCCCCCCN(C(=S)NC(=O)c1ccccc1)c1ccccc1
inactive: [3] 93 % of control | [5] 89 % of control | [7] 91 % of control

Nc1c(F)c(N)c(F)c(F)c1F
inactive: dose: 5.0 mg/kg/injection, schedule: Q01DX001 (ip), vehicle: acetone 98 % of control | dose: 10.0 mg/kg/injection, schedule: Q01DX001 (ip), vehicle: acetone 121 % of control | dose: 20.0 mg/kg/injection, schedule: Q01DX001 (ip), vehicle: acetone 107 % of control | dose: 20.0 mg/kg/injection, schedule: Q04DX002 (ip), vehicle: saline with Tween-80 106 % of control and 115 % of control | dose: 40.0 mg/kg/injection, schedule: Q01DX001 (ip), vehicle: acetone 106 % of control | dose: 40.0 mg/kg/injection, schedule: Q04DX002 (ip), vehicle: saline with Tween-80 95 % of control and 105 % of control | dose: 80.0 mg/kg/injection, schedule: Q01DX001 (ip), vehicle: acetone 101 % of control | dose: 80.0 mg/kg/injection, schedule: Q04DX002 (ip), vehicle: saline with Tween-80 98 % of control and 114 % of control

COc1cc(C(=O)OC2CC34CCNC35CC(OC5(OC)C2O)c2cc3c(cc24)OCO3)ccc1O (stereo not drawn)
inactive: dose: 0.25 mg/kg/injection, schedule: Q01DX015 (ip), vehicle: carboxymethylcellulose (CMC) 100 % of control | dose: 0.5 mg/kg/injection, schedule: Q01DX015 (ip), vehicle: carboxymethylcellulose (CMC) 100 % of control | dose: 0.75 mg/kg/injection, schedule: Q01DX015 (ip), vehicle: carboxymethylcellulose (CMC) 103 % of control | dose: 1.0 mg/kg/injection, schedule: Q01DX009 (ip), vehicle: carboxymethylcellulose (CMC) 95 % of control | dose: 1.0 mg/kg/injection, schedule: Q01DX015 (ip), vehicle: carboxymethylcellulose (CMC) 104 % of control and 108 % of control | dose: 1.25 mg/kg/injection, schedule: Q01DX015 (ip), vehicle: carboxymethylcellulose (CMC) 96 % of control | dose: 1.5 mg/kg/injection, schedule: Q01DX015 (ip), vehicle: carboxymethylcellulose (CMC) 102 % of control | dose: 1.75 mg/kg/injection, schedule: Q01DX015 (ip), vehicle: carboxymethylcellulose (CMC) 98 % of control | dose: 2.0 mg/kg/injection, schedule: Q01DX009 (ip), vehicle: carboxymethylcellulose (CMC) 92 % of control | dose: 2.0 mg/kg/injection, schedule: Q01DX015 (ip), vehicle: carboxymethylcellulose (CMC) 93 % of control | dose: 2.5 mg/kg/injection, schedule: Q01DX015 (ip), vehicle: carboxymethylcellulose (CMC) 96 % of control

COc1cc(/C=C2\C(=O)NC(=O)N(c3ccccc3)C2=O)cc(OC)c1OC
inactive: [1] 101 % of control | [9] 100 % of control

CC(=O)OCCC(OC(C)=O)c1ccccn1 (stereo not drawn)
inactive: dose: 50.0 mg/kg/injection, schedule: Q01DX001 (ip), vehicle: saline 100 % of control | [10] 103 % of control | [11] 97 % of control | [12] 103 % of control

S=C(Nc1ccc(Br)cc1)NC1CCCCC1
inactive: dose: 75.0 mg/kg/injection, schedule: Q01DX001 (ip), vehicle: other 88 % of control | dose: 150.0 mg/kg/injection, schedule: Q01DX001 (ip), vehicle: other 93 % of control | dose: 300.0 mg/kg/injection, schedule: Q01DX001 (ip), vehicle: other 95 % of control

CC(C)Oc1ccc2c(c1)Sc1ccc(Cl)cc1N2
inactive: [9] 102 % of control | dose: 200.0 mg/kg/injection, schedule: Q01DX009 (ip), vehicle: saline with Tween-80 94 % of control | dose: 400.0 mg/kg/injection, schedule: Q01DX009 (ip), vehicle: saline with Tween-80 92 % of control

N#Cc1ccc(N=C(N)N[N+](=O)[O-])cc1
inactive: dose: 25.0 mg/kg/injection, schedule: Q04DX002 (ip), vehicle: Klucel (hydroxypropylcellulose) (HPC) 96 % of control | dose: 50.0 mg/kg/injection, schedule: Q04DX002 (ip), vehicle: Klucel (hydroxypropylcellulose) (HPC) 104 % of control | dose: 100.0 mg/kg/injection, schedule: Q04DX002 (ip), vehicle: Klucel (hydroxypropylcellulose) (HPC) 104 % of control

CCCCCCCCCCCCSc1nccnc1C
inactive: [13] 113 % of control | [2] 106 % of control | [4] 92 % of control

C/C(N=Nc1ccc([N+](=O)[O-])cc1)=N\Nc1ccccc1
inactive: [13] 102 % of control | [2] 107 % of control | [4] 112 % of control | [6] 97 % of control

O=C(CC(C[N+](=O)[O-])c1ccccc1)c1ccc(Cl)cc1 (stereo not drawn)
inactive: [2] 96 % of control | [4] 90 % of control | [6] 92 % of control

CCC(C)(C)NC1=C(Cl)C(=O)c2ccccc2C1=O
inactive: dose: 6.25 mg/kg/injection, schedule: Q01DX001 (ip), vehicle: saline with Tween-80 95 % of control | dose: 12.5 mg/kg/injection, schedule: Q01DX001 (ip), vehicle: saline with Tween-80 106 % of control

CCCCCCCCCCC[CH2][Hg][Cl]
inactive: dose: 6.25 mg/kg/injection, schedule: Q04DX003 (ip), vehicle: Klucel (hydroxypropylcellulose) (HPC) 93 % of control

O=C(OC(=O)c1cccc2ccccc12)c1cccc2ccccc12
inactive: [10] 94 % of control | [11] 102 % of control | [12] 94 % of control
